Test results taken from article PMC12389619, “Discovery and Evaluation of Novel Sulfonamide Derivatives Targeting Aromatase in ER+ Breast Cancer” (Pharmaceuticals, 2025).
Like-named read-outs stand apart in the source and are kept apart here.

Tests used:
[1] = test system: NIH3T3 mouse fibroblast cell line; test: MTT cytotoxicity assay on NIH3T3; conditions: read-out: NIH3T3 IC50
Procedure: (§1) MCF7 and NIH3T3 were grown in Dulbecco’s Modified Eagle Medium (DMEM, Sigma-Aldrich, USA); supplemented with 10% fetal bovine serum (Capricorn Scientific, Ebsdorfergrund, Germany) and 1% antibiotics (100 mg/mL of streptomycin and 100 units of penicillin, Sigma-Aldrich, Taufkirchen, Germany); and incubated until confluent at 37 °C in a humidified incubator with a 5% CO2 atmosphere.
(§2) The cytotoxicity assays were performed using the human MCF7, mouse fibroblast NIH3T3, and human non-tumorigenic mammary epithelial MCF12A cell lines in accordance with the MTT procedure previously reported [37, 38].
(§3) The compounds were dissolved in dimethyl sulfoxide (DMSO, AppliChem, Darmstadt, Germany) and diluted to the required concentrations with fresh medium, while the solvent control was prepared with a medium containing 0.1% DMSO. The half-maximal inhibitory concentrations (IC50) of the compounds were determined by calculating the cell viability via the MTT assay. The cells were harvested and counted using an automated cell counter (LUNA II, Logos Biosystems, Gyeonggi, Republic of Korea). […] Following a 24 h incubation period, the MTT solution was added to the wells to a final concentration of 5 mg/mL. The cells were incubated for a 3 h period, after which point the medium was removed and 100 µL of DMSO was added. The absorbances were measured at 540 nm using a MultiMode Plate Reader (BioTek, HTX Synergy, Winooski, Vermont, USA).

[2] = test system: MCF7 human breast cancer cell line; test: MTT cytotoxicity assay on MCF7; conditions: read-out: MCF7 IC50
Procedure: as §1, §2, §3

Aromatase (CYP19A) [3] = target: T1, Aromatase (CYP19A) (Homo sapiens, UniProt P11511); conditions: read-out: Aromatase IC50; means of quartet assays
T1 sequence (P11511 1-503): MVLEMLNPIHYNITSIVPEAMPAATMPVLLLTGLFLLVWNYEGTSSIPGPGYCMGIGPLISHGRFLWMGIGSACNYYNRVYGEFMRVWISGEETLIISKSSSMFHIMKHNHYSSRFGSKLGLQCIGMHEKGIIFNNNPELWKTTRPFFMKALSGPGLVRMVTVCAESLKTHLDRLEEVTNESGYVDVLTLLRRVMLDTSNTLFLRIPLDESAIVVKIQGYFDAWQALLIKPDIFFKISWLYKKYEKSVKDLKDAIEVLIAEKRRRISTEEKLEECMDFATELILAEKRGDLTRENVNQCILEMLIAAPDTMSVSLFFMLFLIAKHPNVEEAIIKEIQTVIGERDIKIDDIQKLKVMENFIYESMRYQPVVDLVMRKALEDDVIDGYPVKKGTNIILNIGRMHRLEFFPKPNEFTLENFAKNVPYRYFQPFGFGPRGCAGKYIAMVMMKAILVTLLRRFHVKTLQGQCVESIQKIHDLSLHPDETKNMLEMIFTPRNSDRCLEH

Aromatase (CYP19A) [4] = target: T1, Aromatase (CYP19A); test: biochemical
[5] = test system: MCF12A non-tumorigenic mammary cell line; test: MTT cell viability on MCF12A; format: cell-based, human; conditions: concentration range 1 mM–1 nM, 24 h
Procedure: This fact is of crucial importance to the effective and safe treatment of cancer since selectivity refers to the ability of a drug to target cancer cells while minimizing the harm to healthy cells. This targeted approach has the potential to yield more efficacious therapies with a reduced incidence of adverse effects, thereby enhancing patient outcomes.
MCF12A was maintained in DMEM/Ham’s F12 (1:1); supplemented with 5% horse serum, 20 ng/mL of human epidermal growth factor, 0.01 mg/mL of bovine insulin, 500 ng/mL of hydrocortisone, and 100 U/mL (50 µg/mL) of penicillin–streptomycin; and maintained at 37 °C in a humidified atmosphere of 5% CO2.

Row | Molecule | IC50 ([1]; MTT, 24 h, healthy model, means of quartet assays) [µM] | IC50 ([2]; MTT, 24 h, means of quartet assays) [µM] | IC50 (Aromatase (CYP19A) [3]) [µM] | IC50 ([1]; Mus musculus, NIH3T3, 24 h) [µM] | IC50 ([2]; Homo sapiens, MCF7, 24 h) [µM] | IC50 (Aromatase (CYP19A) [4]) [µM] | effect on MCF12A cell viability [5]
1 | 4-methyl-N-(2-morpholinethyl)benzenesulfonamide [Compound 16] | 50.9 ± 1.51 | 19.6 ± 0.678 | 0.16 ± 0.006 | – | – | – | –
2 | O=S(=O)(NCCc1ccccn1)c1ccccc1 [Compound 1, N-(2-(pyridin-2-yl)ethyl)benzenesulfonamide] | – | – | – | 46.9 ± 1.99 | 7.51 ± 0.296 | – | –
3 | Cc1ccc(S(=O)(=O)NCCc2ccccn2)cc1 [Compound 2, 4-methyl-N-(2-(pyridin-2-yl)ethyl)benzenesulfonamide] | – | – | – | 51.4 ± 1.74 | 15.4 ± 0.356 | 0.248 ± 0.01 | –
4 | Cc1ccc(S(=O)(=O)Nc2ccccn2)cc1 [Compound 3, 4-metyl-N-(pyridin-2-yl)benzenesulfonamide] | – | – | – | 64.3 ± 1.83 | 2.68 ± 0.104 | 0.035 ± 0.001 | –
5 | Cc1ccc(S(=O)(=O)Nc2ccc(Cl)cn2)cc1 [Compound 4, N-(5-chloropyridin-2-yl)-4-methylbenzenesulfonamide] | – | – | – | > 100 | > 100 | > 100 | –
6 | Cc1ccc(S(=O)(=O)Nc2ncc(Cl)cc2Cl)cc1 [Compound 5, N-(3,5-dichloropyridin-2-yl)-4-methylbenzenesulfonamide] | – | – | – | 76.6 ± 1.13 | > 100 | > 100 | –
7 | O=S(=O)(Cc1ccccc1)Nc1ncc(Cl)cc1Cl [Compound 6, N-(3,5-dichloropyridin-2-yl)-1-phenylmethanesulfonamide] | – | – | – | > 100 | 25.3 ± 0.945 | > 100 | –
8 | O=S(=O)(NC1CCN(Cc2ccccc2)CC1)c1ccccc1 [Compound 7, N-(1-benzylpiperidin-4-yl)benzenesulfonamide] | – | – | – | 44.3 ± 1.05 | 28.5 ± 0.514 | > 1000 | –
9 | Cc1ccc(S(=O)(=O)NC2CCN(Cc3ccccc3)CC2)cc1 [Compound 8, N-(1-benzylpiperidin-4-yl)-4-methylbenzenesulfonamide] | – | – | – | > 100 | > 100 | > 1000 | –
10 | O=S(=O)(NCCN1CCCCC1)c1ccccc1 [Compound 9, N-(2-(piperidin-1-yl)ethyl)benzenesulfonamide] | – | – | – | 58.2 ± 0.952 | 3.29 ± 0.119 | – | no effects
11 | O=S(=O)(Cc1ccccc1)NCCN1CCCCC1 [Compound 10, 1-phenyl-N-(2-(piperidin-1-yl)ethyl)methanesulfonamide] | – | – | – | 30.9 ± 1.03 | 6.2 ± 0.258 | 0.052 ± 0.002 | –
12 | Cc1ccc(S(=O)(=O)NCCN2CCCCC2)cc1 [Compound 11] | – | – | – | 29.6 ± 0.812 | 43.6 ± 1.86 | – | –
13 | Cc1ccc(S(=O)(=O)NCCCN2CCCC2)cc1 [Compound 12, 4-methyl-N-(3-(pyrrolidin-1-yl)propyl)benzenesulfonamide] | – | – | – | > 100 | 32.1 ± 1.17 | > 1000 | –
14 | CN1CCCC1CCNS(=O)(=O)c1ccccc1 (stereo not drawn) [Compound 13, N-(2-(1-methylpyrrolidin-2-yl)ethyl)benzenesulfonamide] | – | – | – | 49.6 ± 1.73 | 8.06 ± 0.319 | – | –
15 | Cc1ccc(S(=O)(=O)NCCC2CCCN2C)cc1 (stereo not drawn) [Compound 14, 4-methyl-N-(2-(1-methylpyrrolidin-2-yl)ethyl)benzenesulfonamide] | – | – | – | 56.1 ± 1.93 | 10.5 ± 0.477 | 0.051 ± 0.001 | –
16 | O=S(=O)(NCCN1CCOCC1)c1ccccc1 [Compound 15, N-(2-morpholinethyl)benzenesulfonamide] | – | – | – | 39.3 ± 0.995 | 12.4 ± 0.417 | – | –
17 | O=S(=O)(Cc1ccccc1)NCCN1CCOCC1 [Compound 17, N-(2-morpholinoethyl)-1-phenylmethanesulfonamide] | – | – | – | 43.1 ± 1.03 | 14.6 ± 0.522 | 0.206 ± 0.009 | –
18 | COc1cccc2c1C(=O)c1c(O)c3c(c(O)c1C2=O)C[C@@](O)(C(=O)CO)C[C@@H]3O[C@H]1C[C@H](N)[C@H](O)[C@H](C)O1 [Doxorubicin, reference compound] | – | – | – | > 100 | – | – | –
